# Entries after “also recorded” stand apart in the source; their conditions may differ. [np] = N3'→P5' phosphoramidate
# What was measured:
# [1] = tested on: BV173 cells; experiment: Leukemic cell proliferation, BV173 cells (B2A2 BCR/ABL fusion junction); conditions: for shape of inhibition curves at later time points after partial release of inhibition: FIGS. 14 and 18; for inhibition of BV173 leukemia cell growth relative to phosphoramidate oligonucleotide 6: comparable concentrations
# [2] = tested on: 26-mer hairpin target (SEQ ID NO:22); experiment: Gel band mobility shift assay, 26-mer hairpin target; format: binding; conditions: native conditions, essentially as for Oligonucleotide 3
# Source text: The conditions of the gel band mobility shift assay were essentially as described above.
# [3] = tested on: single mismatch RNA target; experiment: Thermal dissociation of duplexes with single mismatch RNA target; format: binding; conditions: mismatch discrimination
# Procedure: Hybridization of the phosphoramidate oligonucleotides with complementary nucleic acids is sequence specific and determined by the proper Watson-Crick base pairing.
# Reaction solutions were equilibrated at 0° C. and the absorbance at 260 nm was followed as the temperature was increased in increments of 3° C. per 5 minutes. […] Tm values are defined as the temperature at which α=0.5.
# [4] = tested on: complementary DNA strand; experiment: Thermal dissociation of duplexes with complementary DNA strand; format: binding
# Procedure: (§1) The hybridization properties of the phosphoramidate analogs were evaluated relative to complementary DNA or RNA strands having standard phosphodiester intersubunit linkages. The thermal stability data for duplexes generated from phosphoramidate analogs and phosphodiester oligomers are summarized in FIG. 3 (Example 1).
# (§2) The same trend is true for the mixed-base undecanucleotide 6 (FIG. 3), where the Tm 's of duplexes with complementary DNA and RNA strands were 49.2° C. and 72.4° C., respectively, (FIG. 3, experiments 13, 14).
# Thermal dissociation curves were obtained using a Carry IE spectrophotometer (Varian, Palo Alto, Calif.) that was equipped with a temperature controller (Varian). […]
# (§3) The molar extinction coefficients used for oligo(dT), poly(dA) and poly(A) were 8.2, 8.4, and 10.2 A260 ×10^3, respectively. An extinction coefficient of 109 A260 Units/μM was used for the mixed-based oligomers--the extinction coefficient was calculated from the table compiled by P. N. Borer (1975).
# Reaction solutions were equilibrated at 0° C. and the absorbance at 260 nm was followed as the temperature was increased in increments of 3° C. per 5 minutes. The fraction of an oligomer in the bound state, α,at a given temperature was determined by use of upper and lower base lines as described by Abergo, et al. (1981). […]
# [5] = tested on: dA10:dT10 duplex region of the hairpin DNA target d(A10 C4 T10); experiment: Triplex melting with hairpin DNA target d(A10 C4 T10); format: binding
# Procedure: Melting curves were obtained for triplexes formed by the decathymidilic phosphoramidate […] and the dA10 :dT10 duplex region of the hairpin DNA target d(A10 C4 T10) (FIG. 3, experiment 7).
# (§4) Triplex thermal stabilities were evaluated essentially as described above for duplexes.
# FIGS. 7A to 7D present exemplary triplex melting curves. FIGS. 7A and 7C present normalized absorbance at 260 nm plotted against temperature. FIGS. 7B and 7D present normalized absorbance at 284 nm plotted against temperature. In the figures: the triplexes formed by double stranded DNA and phosphoramidate Oligonucleotide 3 correspond to the black circle line; triplexes formed with phosphodiester Oligonucleotide 1 correspond to open squares line).
# The data correspond to FIG. 3, experiment 7 where curves (A) and (C) were thermal stability studies performed using buffers A and B, respectively, with hyperchromicity monitored at 260 nm. Curves (B) and (D) are (A) and (C) respectively, but where hyperchromicity was monitored at 284 nm.
# [6] = tested on: HL60 cells; experiment: Leukemic cell proliferation / cytotoxicity, HL60 cells (no BCR/ABL breakpoint); format: cell-based
# Procedure: (§5) N3'→P5' phosphoramidate linkage containing anti-sense oligonucleotides were synthesized which were complementary to the BCR/ABL fusion junction (B2A2) in leukemic cell line BV173. The following assay measures leukemic cell proliferation and is performed essentially as described by Anfossi, et al. (1989).
# (§6) Briefly, FIG. 10 illustrates the effect of BCR-ABL oligomers on leukemic cell proliferation of BV173 cells carrying the B2A2-type break points. BV173 is a leukemic cell line with the B2A2 BCR/ABL fusion junction (Pegoraro, et al., 1983). HL60 is a promyelocytic leukemic cell line with a normal c-abl locus (Collins, et al., 1977). K562 is a leukemic cell line with the B3A2 BCR/ABL fusion junction (Seelig, et al., 1993).
# (§7) Cells (5×10^4) were placed in 0.2 ml of liquid suspension culture (Iscove's modified Dulbecco's modified medium with 2% human AB serum--Life Technologies, Gaithersburg, Md.).
# (§8) The oligonucleotides were administered to the cultures at 24 hour intervals for three days (days 0, 1 and 2) to achieve the incremental concentrations shown in the legends of FIGS. 10-19 (all concentrations in μg/mL), for example, FIG. 10--40/20/20; 20/10/10; 10/5/5; and 5/2.5/2.5. Note that, for example, 40/20/20 reflects a final total concentration of 80 μg/ml in the cell culture medium after the last oligonucleotide addition. Cell counts were performed by standard methods.
# [7] = tested on: complementary RNA strand; experiment: Thermal dissociation of duplexes with complementary RNA strand; format: binding
# Procedure: as §1, §2
# Thermal dissociation curves were obtained using a Carry IE spectrophotometer (Varian, Palo Alto, Calif.) that was equipped with a temperature controller (Varian). The reaction solutions contained equivalent concentrations of oligomer and complement (approximately 6 μM in oligomer strand) in 15 mM phosphate buffer at pH 7.05, with NaCl added to give a total Na+ concentration of 100 mM.
# as §3
# Reaction solutions were equilibrated at 0° C. and the absorbance at 260 nm was followed as the temperature was increased in increments of 3° C. per 5 minutes. The fraction of an oligomer in the bound state, α,at a given temperature was determined by use of upper and lower base lines as described by Abergo, et al. (1981). Tm values are defined as the temperature at which α=0.5. Plots of Ink (Marky, et al., 1987) versus 1/T were linear for these compounds.
# In the table, Tm is the temperature at the midpoint of the melting curve; np is the abbreviation for the 3'--NHP(O)(O^-)0-5' phosphoramidate link.
# The concentrations of oligonucleotides were typically at 5 μM oligomer strands. Buffer A (10 mM Tris HCl, 150 mM NaCl, pH 7.02) was used for duplex thermal stability studies.
# [8] = tested on: K562 cells; experiment: Leukemic cell proliferation / cytotoxicity, K562 cells (B3A2 BCR/ABL fusion junction); format: cell-based; conditions: FIG. 15
# Procedure: as §5, §6, §7, §8
# [9] = Thermal dissociation of oligonucleotide hairpin duplexes; format: physicochemical
# Procedure: Experiments were also performed to evaluate the stability of duplexes formed by oligonucleotides containing phosphoramidate linkages in both complementary strands.
# The stability of duplexes formed by oligonucleotides containing phosphoramidate linkages in both complementary strands was evaluated essentially as described above.
# All the molecules in FIG. 6 were constructed using 2'-deoxyribonucleotides.
# as §4
# [10] = tested on: 24-mer hairpin target d(A10 C4 T10); experiment: Gel band mobility shift assay, 24-mer hairpin target; format: binding; conditions: native conditions, 10 mM MgCl2, 80 mM Tris-borate, pH 8.2, 10° C.
# Procedure: Triplex structures were further evaluated using gel band mobility shift assays.
# Gel band mobility shift assay conditions were as follows: 20% acrylamide, 5% bisacrylamide in 10 mM MgCl2, 80 mM Tris-borate buffer, pH 8.2, 10° C. Gels were typically run under native (non-denaturing) conditions. In the figure the lanes are as follows: 1--10-mer phosphodiester Oligonucleotide 1; 2--10-mer phosphoramidate Oligonucleotide 3; 3--24-mer hairpin target d(A10 C4 T10) (FIG. 3, experiment 7).
# The gel was stained with STAINS-ALL™ (Kodak, Rochester N.Y.) and imaged on a Molecular Dynamics (Sunnyvale, Calif.) densitometer.
# [11] = tested on: control cell lines; experiment: Cytotoxicity of antisense oligonucleotides in leukemia cell culture; format: cell-based
# Source text: FIGS. 10 through 19 show the results of anti-sense oligonucleotides, having either phosphoramidate (N3'→P5') (FIGS. 10-15) or phosphorothioate (FIGS. 16-19) intersubunit linkages, on leukemia cell proliferation for different BCR-ABL leukemia cell lines and control cell lines.
# as §5, §7, §8
# [12] = versus Oligodeoxyribonucleotide 4
substance,measurement,setting,value
"16mer phosphorothioate oligonucleotide (SEQ ID NO:27): 16mer phosphorothioate complementary to the B3A2 BCR/ABL fusion junction; 2 base pair mismatch to B2A2 (antisense GAGTTCAAAAGCCCTT; all phosphorothioate, sugars by position and methylation of C not given here)",tolerance by BV173 cells,[1]; all concentrations (FIG. 17),tolerated by the cells
"Oligonucleotide 6: fully modified N3'→P5' phosphoramidate 11-mer complementary to the BCR-ABL junction B2A2 (antisense CTTCTTCCTTA; all [np], sugars by position and methylation of C not given here)",triplex formation in gel band mobility shift assay,[2],stable triplex formation; also recorded: confirmed by gel band mobility shift assay
same,ΔTm with single mismatch RNA target versus fully complementary,[3],-12.2 °C
same,Tm of duplex with complementary DNA strand,[4]; buffer A,49.2 °C
same,"Tm increase relative to parent phosphodiester Oligodeoxyribonucleotide 4, DNA strand",[4]; [12],11.7 °C
same,Tm of triplex,[5]; close to physiological conditions (buffer A),32 °C
same,Tm of triplex,[5]; magnesium-containing buffer (buffer B),42.2 °C
same,cytotoxicity to HL60 cells,[6],no apparent cytotoxicity; also recorded: negligible toxicity
same,tolerance by HL60 cells,[6]; all concentrations (FIG. 11),well tolerated by the cells
same,Tm of duplex with complementary RNA strand,[7]; buffer A,72.4 °C
same,"Tm increase relative to parent phosphodiester Oligodeoxyribonucleotide 4, RNA strand",[7]; [12],22.9 °C
same,"duplex stability increase relative to homologous RNA oligomer 5, same RNA target",[7]; versus RNA oligomer 5,18.0 °C
same,shape of inhibition curves at later time points after partial release of inhibition,[1],downward inflection at later time points
same,inhibition of BV173 leukemia cell proliferation,"[1]; all concentrations / FIG. 10 down to 5/2.5/2.5 μg/ml on days 0, 1, 2",extremely effective at inhibiting the growth of the leukemia cells
same,inhibition of BV173 leukemia cell proliferation,[1]; lowest concentrations 0.3125/0.15625/0.15625 μg/mL (FIG. 12),extremely effective at inhibiting leukemia cell proliferation
same,effect on proliferation of K562 cells / cytotoxicity,[8],essentially no effect on the proliferation
d(A10 C4 T10) [hairpin duplex],Tm of the hairpin duplex,[9]; buffer A,55.7 °C
same,Tm of the hairpin duplex,[9]; buffer B (10 mM MgCl2),61.5 °C
"phosphodiester decathymidilic acid [Oligonucleotide 1, reference compound]",triplex formation judged by melting curves,"[5]; buffers A and B, 260 and 284 nm",no corresponding triplex was formed; also recorded: did not form triplexes
same,triplex formation in gel band mobility shift assay,[10],no corresponding triplex was formed; also recorded: fails to form a triplex
"phosphorothioate 16-mer: oligonucleotide 16-mer having fully modified phosphorothioate intersubunit linkages, containing the SEQ ID NO:6 sequence (antisense AAGGGCTTCTTCCTTA; all phosphorothioate, sugars by position and methylation of C not given here)",cytotoxicity,[11],absence of cytotoxicity
same,shape of inhibition curves at later time points after partial release of inhibition,[1],steep upward inflection at later time points
same,concentrations of release of inhibition relative to phosphoramidate oligonucleotide 6,[1]; FIGS. 18 and 19,much lower concentrations
same,inhibition of BV173 leukemia cell growth relative to phosphoramidate oligonucleotide 6,[1],not effective at inhibiting BV173 leukemia cell proliferation
same,inhibition of BV173 leukemia cell growth relative to phosphoramidate oligonucleotide 6,[1]; listed as 16-mer (SEQ ID NO:26),not as effective as oligonucleotide 6

# From patent US5965720A, “Oligonucleotide N3'→P5' phosphoramidates” (Lynx Therapeutics, Inc., priority 1997, dated 1999)
